Data as given in US9771345B2, “Coferons and methods of making and using them” (Cornell University, priority 2009, dated 2017).
pIC50: −log10 of the molar value. Counter-ions that a name gives are not always drawn.

Target: T1, recombinant human tryptase, beta, from lung (Homo sapiens, UniProt P20231)
T1 construct: purchased Promega or Enzo Life Sciences G5631 or BML-SE418
Experiment: Inhibition of tryptase activity by coferons (Boc-Gln-Ala-Arg-AMC fluorescence)
Type: biochemical
Conditions: coferon monomer alone; 1 nM tryptase
Experimental: Stock solutions of recombinant human tryptase, beta, from lung (Promega: catalog number G5631, or Enzo Life Sciences: catalog number BML-SE418) were made at 30 μM, in solution with 50 μM heparin sulfate and 500 mM NaCl. Coferon tryptase inhibitor stock solutions were made at 50 mM in DMSO. Drug plates were made at 5× the final concentration in assay buffer (50 mM HEPES, 150 mM NaCl, 100 μM EDTA, pH 7.4, 0.02% Tween-20). A final concentration of 1 nM tryptase was used. When required, drugs were diluted in assay buffer immediately before use in 10-fold serial dilutions. […] The Softmax Pro (Molecular Devices) and Graphpad prism software were used to determine Vmax, and concentration-response curve IC50s, respectively.

T1 sequence (P20231 31-275): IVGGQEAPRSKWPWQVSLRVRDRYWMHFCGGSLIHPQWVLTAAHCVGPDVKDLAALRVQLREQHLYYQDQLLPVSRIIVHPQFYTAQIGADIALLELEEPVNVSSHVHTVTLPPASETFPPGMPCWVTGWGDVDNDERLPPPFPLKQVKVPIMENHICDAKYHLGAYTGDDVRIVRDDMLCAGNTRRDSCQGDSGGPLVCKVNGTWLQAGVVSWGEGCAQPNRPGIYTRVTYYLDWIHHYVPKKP

| Compound | pIC50 |
| --- | --- |
| NCc1cccc(C2CCN(C(=O)Cc3ccc(B(O)O)cc3)CC2)c1 [Example 37, (4-(2-(4-(3-(aminomethyl)phenyl)piperidin-1-yl)-2-oxoethyl)phenyl)boronic acid] | 5.98 |
| NCc1cccc(C2CCN(C(=O)c3cccc4ccc(B(O)O)cc34)CC2)c1 [Example 35, (8-(4-(3-(aminomethyl)phenyl)piperidine-1-carbonyl)naphthalen-2-yl)boronic acid] | 4.82 |
| NCc1cccc(C2CCN(C(=O)Cc3cccc(B(O)O)c3)CC2)c1 [Example 36, (3-(2-(4-(3-(aminomethyl)phenyl)piperidin-1-yl)-2-oxoethyl)phenyl)boronic acid] | 5.09 |
| NCc1cccc(C2CCN(C(=O)c3cccc(OCC(=O)N4C[C@@H](O)[C@@H](O)C4)c3)CC2)c1 [Example 50, 2-(3-(4-(3-(aminomethyl)phenyl)piperidine-1-carbonyl)phenoxy)-1-((3S,4R)-3,4-dihydroxypyrrolidin-1-yl)ethanone] | 5.12 |
| NCc1cccc(C2CCN(C(=O)c3cccc4cc(O)c(O)cc34)CC2)c1 [Example 40, (4-(3-(aminomethyl)phenyl)piperidin-1-yl)(6,7-dihydroxynaphthalen-1-yl)methanone] | 5.92 |
| NCc1cccc(C2CCN(C(=O)/C=C/c3ccc(O)c(O)c3)CC2)c1 [Example 39, (E)-1-(4-(3-(aminomethyl)phenyl)piperidin-1-yl)-3-(3,4-dihydroxyphenyl)prop-2-en-1-one hydrochloride] | 5.37 |
| NCc1cccc(C2CCN(C(=O)c3cccc4cc(B(O)O)ccc34)CC2)c1 [Example 34, (5-(4-(3-(amino methyl)phenyl)piperidine-1-carbonyl)napthalen-2-yl)boronic acid] | 6.32 |
